# Test results reported in paper PMC7593677, “Discovery of N-(2-Amino-4-Fluorophenyl)-4-[bis-(2-Chloroethyl)-Amino]-Benzamide as a Potent HDAC3 Inhibitor” (Frontiers in Oncology, 2020).
# Where two headings read alike, the source gives them in different places.
# Key:
# HepG2 cells [1] = experiment: Cell cycle analysis (PI, flow cytometry); conditions: 6 h; for Percentage of cells in G2/M phase (third peak): HepG2
# Method: (§5) Following 6-h incubation, cells were washed twice with cold PBS and then fixed in 70% precooled ethanol at 4°C for 12 h. The fixed cells were washed again and then stained with PI/RNase A for 30 min at room temperature.
# HepG2 cells [2] = experiment: Antiproliferative MTT assay; assay type: cell-based, human
# Method: (§1) The stock solutions of compounds to be tested were prepared in culture medium. […] To determine cell viability, 20 μL MTT working solution (5 mg/mL) was then added to each well and incubated for another 4 h. After this incubation, the medium was carefully aspirated, and 200 μL dimethyl sulfoxide (DMSO) was added to each well and vibrated for 10 min to make sure formed formazans were completely dissolved. The optical densities (ODs) at 490 and 630 nm were counted by Universal Microplate Spectrophotometer. […] Origin 7.5 software was used to calculate the IC50 values from at least three independent experiments.
# HDAC6 = molecular target: T1, HDAC6 (Homo sapiens, UniProt Q9UBN7); experiment: HDAC enzyme inhibition assay (fluorogenic substrate); assay type: biochemical
# T1 construct: purchased BPS Bioscience
# T1 sequence (Q9UBN7 whole entry): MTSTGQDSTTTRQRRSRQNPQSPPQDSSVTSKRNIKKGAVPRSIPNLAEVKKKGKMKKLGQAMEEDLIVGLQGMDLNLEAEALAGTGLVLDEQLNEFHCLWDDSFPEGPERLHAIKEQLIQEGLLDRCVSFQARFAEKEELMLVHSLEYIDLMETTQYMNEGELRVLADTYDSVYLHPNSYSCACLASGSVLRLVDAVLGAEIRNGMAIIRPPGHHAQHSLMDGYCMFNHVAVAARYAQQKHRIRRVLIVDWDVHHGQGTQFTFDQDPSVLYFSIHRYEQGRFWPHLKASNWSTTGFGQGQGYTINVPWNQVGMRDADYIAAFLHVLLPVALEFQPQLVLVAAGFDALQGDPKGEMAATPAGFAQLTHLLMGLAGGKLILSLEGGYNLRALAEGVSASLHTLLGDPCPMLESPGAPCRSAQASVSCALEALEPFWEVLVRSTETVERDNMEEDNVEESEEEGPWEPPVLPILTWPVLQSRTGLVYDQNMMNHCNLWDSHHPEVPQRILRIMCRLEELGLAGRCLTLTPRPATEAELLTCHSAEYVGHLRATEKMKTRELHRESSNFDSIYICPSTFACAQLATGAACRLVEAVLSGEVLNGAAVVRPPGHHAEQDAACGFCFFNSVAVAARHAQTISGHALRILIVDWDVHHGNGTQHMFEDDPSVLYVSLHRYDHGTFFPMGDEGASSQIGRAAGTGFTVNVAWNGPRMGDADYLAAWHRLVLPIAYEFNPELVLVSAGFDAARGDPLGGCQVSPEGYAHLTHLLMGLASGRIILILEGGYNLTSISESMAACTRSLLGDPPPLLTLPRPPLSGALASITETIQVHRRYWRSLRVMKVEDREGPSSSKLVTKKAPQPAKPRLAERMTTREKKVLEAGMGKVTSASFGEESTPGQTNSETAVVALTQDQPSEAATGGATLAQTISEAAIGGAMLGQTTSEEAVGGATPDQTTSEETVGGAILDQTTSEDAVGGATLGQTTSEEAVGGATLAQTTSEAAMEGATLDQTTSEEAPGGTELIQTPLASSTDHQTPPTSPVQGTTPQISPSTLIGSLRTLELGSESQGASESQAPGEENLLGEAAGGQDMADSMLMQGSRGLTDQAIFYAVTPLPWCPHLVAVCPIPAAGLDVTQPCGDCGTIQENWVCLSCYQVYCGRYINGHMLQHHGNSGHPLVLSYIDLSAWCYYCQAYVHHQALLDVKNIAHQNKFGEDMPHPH
# Method: (§2) All of the HDAC enzymes tested were purchased from BPS Bioscience. First, 20 μL of each recombinant HDAC enzyme solution (HDAC1, 2, 3, 4, 6, 7, 8, and 9) was mixed with various concentrations of tested compound samples (20 μL) in a 96-well plate. The mixture was incubated at 30°C for 1 h for the dose-dependent assay. Additionally, mixtures were incubated for 15, 30, 60, and 90 min, for the time-dependent assay, and then 10 μL of fluorogenic substrate [3 mM Boc-Lys(acetyl)-AMC or Boc-Lys (trifluoroacetyl)-AMC for HDAC1/2/3/6 or HDAC4/7/8/9, respectively] was added. Then, the acetylation reaction was initiated by adding HDAC substrate working solution and incubating at 30°C for 2 h. After the desired time, 10 μL developer with trypsin and trichostatin A was added to stop the reaction, and then the mixture was incubated at 30°C for another 30 min.
# (§3) A microplate reader was used to determine fluorescence intensity at excitation: 360 nm and emission: 460 nm. The inhibition ratios were calculated by comparing the fluorescence intensities from tested wells to those of controls. The IC50 curves and values were then obtained with GraphPad Prism 6.0 software.
# HDAC1 = molecular target: T2, HDAC1 (Homo sapiens, UniProt Q13547); experiment: as above; assay type: biochemical; conditions: recombinant enzyme, n ≥ 2, SD <10% of mean
# T2 construct: purchased BPS Bioscience
# T2 sequence (Q13547 whole entry): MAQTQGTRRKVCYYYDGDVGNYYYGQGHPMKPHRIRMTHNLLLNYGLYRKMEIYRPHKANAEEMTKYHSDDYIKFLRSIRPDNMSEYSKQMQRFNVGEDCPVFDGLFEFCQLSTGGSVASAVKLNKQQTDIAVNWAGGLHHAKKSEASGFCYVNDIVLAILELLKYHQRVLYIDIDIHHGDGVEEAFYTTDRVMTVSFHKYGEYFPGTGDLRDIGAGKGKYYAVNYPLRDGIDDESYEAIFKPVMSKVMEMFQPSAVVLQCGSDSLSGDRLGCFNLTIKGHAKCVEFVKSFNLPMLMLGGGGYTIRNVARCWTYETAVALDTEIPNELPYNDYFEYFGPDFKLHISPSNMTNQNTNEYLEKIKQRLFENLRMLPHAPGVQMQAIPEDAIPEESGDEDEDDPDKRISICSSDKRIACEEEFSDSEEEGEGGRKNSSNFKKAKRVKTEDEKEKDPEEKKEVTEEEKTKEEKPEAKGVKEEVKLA
# Method: as §2, §3
# HDAC7 = molecular target: T3, HDAC7 (Homo sapiens, UniProt Q8WUI4); experiment: as above; assay type: biochemical; conditions: recombinant enzyme, n ≥ 2, SD <10% of mean
# T3 construct: purchased BPS Bioscience
# T3 sequence (Q8WUI4 whole entry): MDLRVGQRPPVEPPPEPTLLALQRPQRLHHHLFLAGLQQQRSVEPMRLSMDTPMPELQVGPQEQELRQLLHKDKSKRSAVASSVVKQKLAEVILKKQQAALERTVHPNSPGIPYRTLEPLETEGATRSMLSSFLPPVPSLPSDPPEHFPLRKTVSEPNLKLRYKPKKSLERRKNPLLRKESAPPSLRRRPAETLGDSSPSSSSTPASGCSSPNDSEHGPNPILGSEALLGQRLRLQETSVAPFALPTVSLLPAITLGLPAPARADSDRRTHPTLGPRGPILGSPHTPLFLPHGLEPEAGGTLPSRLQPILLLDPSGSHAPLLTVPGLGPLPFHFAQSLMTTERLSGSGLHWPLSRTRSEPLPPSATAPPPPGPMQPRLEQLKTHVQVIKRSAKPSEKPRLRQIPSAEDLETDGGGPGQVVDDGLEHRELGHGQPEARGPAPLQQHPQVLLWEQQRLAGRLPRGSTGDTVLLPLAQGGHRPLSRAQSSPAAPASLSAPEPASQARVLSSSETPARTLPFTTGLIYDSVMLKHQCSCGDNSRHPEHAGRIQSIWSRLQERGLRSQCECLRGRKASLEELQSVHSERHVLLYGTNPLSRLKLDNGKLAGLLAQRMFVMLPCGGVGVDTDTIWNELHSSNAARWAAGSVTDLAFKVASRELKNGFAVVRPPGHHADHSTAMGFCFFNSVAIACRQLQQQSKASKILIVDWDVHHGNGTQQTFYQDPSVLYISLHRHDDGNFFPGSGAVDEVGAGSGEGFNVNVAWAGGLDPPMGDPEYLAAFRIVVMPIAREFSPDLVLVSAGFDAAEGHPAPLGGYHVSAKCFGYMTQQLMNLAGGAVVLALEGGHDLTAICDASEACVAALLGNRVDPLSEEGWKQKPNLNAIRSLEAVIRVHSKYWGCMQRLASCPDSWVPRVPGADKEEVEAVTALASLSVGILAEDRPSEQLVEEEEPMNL
# Method: as §2, §3
# H460 cells = experiment: Antiproliferative MTT assay; assay type: cell-based; conditions: Homo sapiens, NCI-H460, 48 h, read-out: Antiproliferative IC50
# Method: (§4) […]. The stock solutions of compounds to be tested were prepared in culture medium. Tumor cell lines were cultured in 96-well plates at a density of 5 × 10^3 cells per well and incubated until 90–95% confluence, and then each well received 100 μL medium containing desired concentrations of test compounds, and then incubated at 37°C and 5% CO2 for 48 h. To determine cell viability, 20 μL MTT working solution (5 mg/mL) was then added to each well and incubated for another 4 h. After this incubation, the medium was carefully aspirated, and 200 μL dimethyl sulfoxide (DMSO) was added to each well and vibrated for 10 min to make sure formed formazans were completely dissolved. The optical densities (ODs) at 490 and 630 nm were counted by Universal Microplate Spectrophotometer. […] Origin 7.5 software was used to calculate the IC50 values from at least three independent experiments.
# A549 cells = experiment: Antiproliferative MTT assay; assay type: cell-based; conditions: Homo sapiens, A549, 48 h, read-out: Antiproliferative IC50
# Method: as §4
# SW480 cells = experiment: Antiproliferative MTT assay; assay type: cell-based; conditions: Homo sapiens, SW480, 48 h, read-out: Antiproliferative IC50
# Method: as §4
# U937 cells = experiment: Antiproliferative MTT assay; assay type: cell-based; conditions: Homo sapiens, U-937, 48 h, read-out: Antiproliferative IC50
# Method: as §1
# K562 cells = experiment: Antiproliferative MTT assay; assay type: cell-based; conditions: Homo sapiens, K562, 48 h, read-out: Antiproliferative IC50
# Method: as §1
# SW579 cells = experiment: Antiproliferative MTT assay; assay type: cell-based; conditions: Homo sapiens, SW579, 48 h, read-out: Antiproliferative IC50
# Method: as §1
# A2780 cells = experiment: Antiproliferative MTT assay; assay type: cell-based; conditions: Homo sapiens, A2780, 48 h, read-out: Antiproliferative IC50
# Method: as §1
# FTC-133 cells = experiment: Antiproliferative MTT assay; assay type: cell-based; conditions: Homo sapiens, FTC-133, 48 h, read-out: Antiproliferative IC50
# Method: as §1
# U266 cells = experiment: Antiproliferative MTT assay; assay type: cell-based; conditions: Homo sapiens, U-266, 48 h, read-out: Antiproliferative IC50
# Method: as §1
# OS-RC-2 cells = experiment: Antiproliferative MTT assay; assay type: cell-based; conditions: Homo sapiens, OS-RC-2, 48 h, read-out: Antiproliferative IC50
# Method: as §1
# SK-NEP-1 cells = experiment: Antiproliferative MTT assay; assay type: cell-based; conditions: Homo sapiens, SK-NEP-1, 48 h, read-out: Antiproliferative IC50
# Method: as §1
# MDA-MB-231 cells = experiment: Antiproliferative MTT assay; assay type: cell-based; conditions: Homo sapiens, MDA-MB-231, 48 h, read-out: Antiproliferative IC50
# Method: as §1
# Hela cells = experiment: Antiproliferative MTT assay; assay type: cell-based; conditions: Homo sapiens, 48 h, read-out: Antiproliferative IC50
# Method: as §1
# H322 cells = experiment: Antiproliferative MTT assay; assay type: cell-based; conditions: Homo sapiens, NCI-H322, 48 h, read-out: Antiproliferative IC50
# Method: as §1
# HepG2 xenograft = experiment: In vivo antitumor activity, HepG2 xenograft nude mice model; conditions: 100 mg/kg once a day for 15 days
# Method: When the tumor is prominent, the BALB/c female mice were randomly assigned into control and treatment groups (six mice per group).
# Injected mice were kept for 10 days; those with palpable tumors were then randomly assigned into treatment and control groups (six mice per group). The treatment groups were administrated with 100 mg/kg/d test compound intragastrically, whereas the control group was administered with an equal volume of phosphate-buffered saline (PBS) solution. The tumor size and body weight were assessed every day. After 15 days of treatment, the mice were euthanized, and tumor weights were acquired with an electronic balance.
# HDAC3 = molecular target: T4, HDAC3 (Homo sapiens, UniProt O15379); experiment: biochemical; assay type: biochemical
# T4 construct: purchased BPS Bioscience
# T4 sequence (O15379 whole entry): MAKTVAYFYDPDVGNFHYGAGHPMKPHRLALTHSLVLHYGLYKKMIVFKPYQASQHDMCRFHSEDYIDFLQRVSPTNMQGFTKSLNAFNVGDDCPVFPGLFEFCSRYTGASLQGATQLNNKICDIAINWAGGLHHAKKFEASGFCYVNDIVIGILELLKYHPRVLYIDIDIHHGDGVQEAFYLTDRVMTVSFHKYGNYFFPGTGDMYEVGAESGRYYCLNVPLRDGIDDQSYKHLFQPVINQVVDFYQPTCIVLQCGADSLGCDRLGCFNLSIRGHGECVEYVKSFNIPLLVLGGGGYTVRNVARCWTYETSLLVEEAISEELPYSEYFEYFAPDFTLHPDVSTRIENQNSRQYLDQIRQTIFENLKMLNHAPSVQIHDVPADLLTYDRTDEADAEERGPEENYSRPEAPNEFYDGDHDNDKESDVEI
# T4 sequence (Q9Y618 395-489 partner limits assumed): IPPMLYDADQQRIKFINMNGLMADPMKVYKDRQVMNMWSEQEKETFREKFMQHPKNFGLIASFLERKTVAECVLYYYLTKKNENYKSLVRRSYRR
# Method: as §2, §3
# HDAC2 = molecular target: T5, HDAC2 (Homo sapiens, UniProt Q92769); experiment: biochemical; conditions: recombinant enzyme, n ≥ 2, SD <10% of mean
# T5 construct: purchased BPS Bioscience
# T5 sequence (Q92769 whole entry): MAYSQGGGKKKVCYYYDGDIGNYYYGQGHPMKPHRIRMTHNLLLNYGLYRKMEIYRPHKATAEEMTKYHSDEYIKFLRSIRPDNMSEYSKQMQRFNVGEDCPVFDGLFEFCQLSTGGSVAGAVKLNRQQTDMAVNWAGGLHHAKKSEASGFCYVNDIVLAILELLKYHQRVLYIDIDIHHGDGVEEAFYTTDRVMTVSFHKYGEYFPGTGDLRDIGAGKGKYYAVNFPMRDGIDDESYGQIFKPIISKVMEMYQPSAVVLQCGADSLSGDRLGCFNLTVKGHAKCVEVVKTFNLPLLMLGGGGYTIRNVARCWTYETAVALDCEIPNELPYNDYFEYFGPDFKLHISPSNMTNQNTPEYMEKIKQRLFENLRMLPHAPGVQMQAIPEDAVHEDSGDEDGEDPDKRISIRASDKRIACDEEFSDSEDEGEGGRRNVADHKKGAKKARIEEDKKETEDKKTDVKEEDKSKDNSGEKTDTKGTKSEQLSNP
# Method: as §2, §3
# HDAC4 = molecular target: T6, HDAC4 (Homo sapiens, UniProt P56524); experiment: biochemical
# T6 construct: purchased BPS Bioscience
# Method: as §2, §3
# HDAC9 = molecular target: T7, HDAC9 (Homo sapiens, UniProt Q9UKV0); experiment: biochemical
# T7 construct: purchased BPS Bioscience
# T7 sequence (Q9UKV0 whole entry): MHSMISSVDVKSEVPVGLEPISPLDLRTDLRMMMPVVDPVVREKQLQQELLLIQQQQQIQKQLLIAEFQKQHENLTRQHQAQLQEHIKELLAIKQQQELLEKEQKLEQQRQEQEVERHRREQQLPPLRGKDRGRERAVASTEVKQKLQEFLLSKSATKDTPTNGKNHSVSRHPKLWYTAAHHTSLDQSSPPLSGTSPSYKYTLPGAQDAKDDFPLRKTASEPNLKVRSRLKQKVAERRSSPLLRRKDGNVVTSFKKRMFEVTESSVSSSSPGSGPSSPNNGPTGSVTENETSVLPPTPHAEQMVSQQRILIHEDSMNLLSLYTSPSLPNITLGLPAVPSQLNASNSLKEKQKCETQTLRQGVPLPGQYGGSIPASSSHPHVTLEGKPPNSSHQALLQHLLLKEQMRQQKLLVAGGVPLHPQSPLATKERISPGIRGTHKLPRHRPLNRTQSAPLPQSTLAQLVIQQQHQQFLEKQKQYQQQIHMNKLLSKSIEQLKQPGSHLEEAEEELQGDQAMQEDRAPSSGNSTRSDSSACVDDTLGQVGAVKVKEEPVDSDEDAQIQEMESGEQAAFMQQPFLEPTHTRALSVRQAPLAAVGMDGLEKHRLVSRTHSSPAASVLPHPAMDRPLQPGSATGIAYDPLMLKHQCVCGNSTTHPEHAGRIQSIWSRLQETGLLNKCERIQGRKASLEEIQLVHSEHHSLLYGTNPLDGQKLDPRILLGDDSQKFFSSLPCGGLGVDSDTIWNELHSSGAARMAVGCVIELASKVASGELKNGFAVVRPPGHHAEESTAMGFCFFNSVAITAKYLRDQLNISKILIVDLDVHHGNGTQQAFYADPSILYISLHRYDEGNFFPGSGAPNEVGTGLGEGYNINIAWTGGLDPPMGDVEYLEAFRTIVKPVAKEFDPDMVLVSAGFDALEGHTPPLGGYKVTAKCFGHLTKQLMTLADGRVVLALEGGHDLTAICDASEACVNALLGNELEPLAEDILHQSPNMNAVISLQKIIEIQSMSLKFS
# Method: as §2, §3
# HDAC8 = molecular target: T8, HDAC8 (Homo sapiens, UniProt Q9BY41); experiment: biochemical
# T8 construct: purchased BPS Bioscience
# T8 sequence (Q9BY41 whole entry): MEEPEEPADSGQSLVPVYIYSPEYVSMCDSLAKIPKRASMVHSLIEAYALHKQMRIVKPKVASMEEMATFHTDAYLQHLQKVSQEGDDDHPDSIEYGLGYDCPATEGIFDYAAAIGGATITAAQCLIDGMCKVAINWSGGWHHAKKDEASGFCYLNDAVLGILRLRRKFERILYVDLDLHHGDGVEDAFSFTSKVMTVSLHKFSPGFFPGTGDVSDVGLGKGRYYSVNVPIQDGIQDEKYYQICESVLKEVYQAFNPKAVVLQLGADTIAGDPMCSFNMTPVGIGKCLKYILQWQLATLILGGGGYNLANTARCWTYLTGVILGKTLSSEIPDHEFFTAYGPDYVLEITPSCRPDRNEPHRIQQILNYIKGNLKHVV
# Method: as §2, §3
# HepG2 cells [3] = experiment: Cell apoptosis assay (annexin V-FITC/PI, flow cytometry); assay type: cell-based, human; conditions: 24 h, normal group 5.83%
# Method: Then cells were washed with PBS, collected, and resuspended with binding buffer from a commercially available annexin V–FITC kit (Thermo Fisher Co., USA) and mixed with 5 μL of annexin V–FITC gently. Following 10 min of incubation, 1 μL of propidium iodide was added to the samples and incubated for another 20 min while avoiding light. Flow cytometry was used to determine cell apoptosis status (CytoFLEX, Beckman Coulter).
# HepG2 cells xenograft = test system: HepG2 cells xenograft; design: method as in PMID 31543818; conditions: nude mice xenograft model; cited from earlier work
# HepG2 cells [4] = conditions: 6 h
# Method: as §5
# HepG2 cells [5] = experiment: Drug combination analysis (MTT assay); assay type: cell-based; conditions: Homo sapiens, 48 h, read-out: Percentage inhibition rate (PIR)
# Method: The efficacy of drug combination of FNA with taxol and camptothecin was evaluated via cell viability assay (MTT assay). The stock solutions of tested compounds were diluted to the desired concentrations with culture medium. The cells were cultured in 96-well plates at a density 5 × 10^3 cells per well and incubated until 90–95% confluence, and then 100 μL of medium containing desired concentrations of test compounds was added to the wells. Following 48-h incubation, 10 μL of MTT working solution was added to each well and incubated for another 4 h. After removal of the medium, 200 μL DMSO was added to each well to dissolve the formed formazan. The plates were vortexed for 10 min to ensure complete dissolution. Then the OD was acquired with a microplate reader at 490 and 630 nm.
structure (smiles),measurement,setting,value
"Nc1cc(F)ccc1NC(=O)c1ccc(N(CCCl)CCCl)cc1 [FNA, N-(2-amino-4-fluorophenyl)-4-[bis-(2-chloroethyl)-amino]-benzamide]",Percentage of cells in G2/M phase (third peak),HepG2 cells [1]; 0.125 μM,18.84%
same,Percentage of cells in G2/M phase (third peak),HepG2 cells [1]; 0.5 μM,59.36%
same,Potency relative to SAHA in inhibition of the growth of HepG2 cells,"HepG2 cells [2]; HepG2, ratio of IC50 values",13.3 fold
same,IC50,"HepG2 cells [2]; Homo sapiens, HepG2, 48 h, read-out: Antiproliferative IC50",1.3 ± 0.25 µM
same,IC50,HDAC6,> 5 µM
same,IC50,HDAC1,0.843 µM
same,IC50,HDAC7,> 5 µM
same,IC50,H460 cells,4.73 ± 0.05 µM
same,IC50,A549 cells,33.74 ± 0.04 µM
same,IC50,SW480 cells,> 100 µM
same,IC50,U937 cells,0.55 ± 0.03 µM
same,IC50,K562 cells,1.31 ± 0.05 µM
same,IC50,SW579 cells,52.4 ± 0.13 µM
same,IC50,A2780 cells,4.3 ± 0.12 µM
same,IC50,FTC-133 cells,9.09 ± 0.13 µM
same,IC50,U266 cells,0.63 ± 0.32 µM
same,IC50,OS-RC-2 cells,> 100 µM
same,IC50,SK-NEP-1 cells,8.32 ± 0.18 µM
same,IC50,MDA-MB-231 cells,35.29 ± 0.03 µM
same,IC50,Hela cells,1.41 ± 0.04 µM
same,IC50,H322 cells,6.36 ± 0.07 µM
same,Tumor growth inhibition (TGI) rate,HepG2 xenograft,48.89%
same,HDAC3 selectivity vs. HDAC1,HDAC3; ratio of IC50 values,8.83 fold
same,HDAC3 selectivity vs. HDAC2,HDAC3; ratio of IC50 values,9.94 fold
same,IC50,"HDAC3; recombinant enzyme, n ≥ 2, SD <10% of mean",0.0955 µM
same,IC50,HDAC2,0.949 µM
same,IC50,HDAC4,> 5 µM
same,IC50,HDAC9,> 5 µM
same,IC50,HDAC8,> 5 µM
same,Apoptosis rate of HepG2 cells,HepG2 cells [3]; 1 μM,14.08%
same,Apoptosis rate of HepG2 cells,HepG2 cells [3]; 3 μM,19.11%
same,Apoptosis rate of HepG2 cells,HepG2 cells [3]; 9 μM,28.83%
"Nc1ccccc1NC(=O)c1ccc(N(CCCl)CCCl)cc1 [NA, N-(2-aminophenyl)-4-(bis(2-chloroethyl)amino)benzamide]",In vivo potency compared with SAHA,HepG2 cells xenograft,lower potency than SAHA
"O=C(CCCCCCC(=O)Nc1ccccc1)NO [SAHA, Vorinostat]",Effect in the regulation of HepG2 cell cycle,"HepG2 cells [1]; 0.125, 0.25 and 0.5 μM",did not exhibit any effects
same,IC50,H460 cells,7.63 ± 0.03 µM
same,IC50,SW480 cells,2.91 ± 0.04 µM
same,Apoptosis rate of HepG2 cells,HepG2 cells [3]; 1 μM,10.03%
same,Apoptosis rate of HepG2 cells,HepG2 cells [3]; 9 μM,12.43%
same,"Percentage of cells, first peak of cell cycle histogram (phase not given)",HepG2 cells [4]; 0.125 μM,57.65%
same,"Percentage of cells, second peak of cell cycle histogram (phase not given)",HepG2 cells [4]; 0.125 μM,25.02%
same,"Percentage of cells, first peak of cell cycle histogram (phase not given)",HepG2 cells [4]; 0.25 μM,56.26%
same,"Percentage of cells, second peak of cell cycle histogram (phase not given)",HepG2 cells [4]; 0.25 μM,26.33%
same,"Percentage of cells, first peak of cell cycle histogram (phase not given)",HepG2 cells [4]; 0.5 μM,64.73%
same,"Percentage of cells, second peak of cell cycle histogram (phase not given)",HepG2 cells [4]; 0.5 μM,23.27%
CC[C@@]1(O)C(=O)OCc2c1cc1n(c2=O)Cc2cc3ccccc3nc2-1 [camptothecin],inhibition at 0.25 µM,"HepG2 cells [5]; HepG2, camptothecin 0.25 μM alone",61.7%
same,inhibition at 0.5 µM,"HepG2 cells [5]; HepG2, camptothecin 0.5 μM alone",60.9%
CC(=O)O[C@H]1C(=O)[C@@]2(C)[C@H]([C@H](OC(=O)c3ccccc3)[C@]3(O)C[C@H](OC(=O)[C@H](O)[C@@H](NC(=O)c4ccccc4)c4ccccc4)C(C)=C1C3(C)C)[C@]1(OC(C)=O)CO[C@@H]1C[C@@H]2O [taxol],inhibition at 0.1 µM,"HepG2 cells [5]; HepG2, taxol 0.1 μM alone",57.1%
same,inhibition at 0.2 µM,"HepG2 cells [5]; HepG2, taxol 0.2 μM alone",62.4%
